Data set [1] relates to human MCF-7 breast cancer cells. Put plainly: Cell viability (Alamar Blue) antiproliferative assay in MCF-7 cells. Format: cell-based. Conditions: Homo sapiens, MCF7, 72 h, human MCF-7 breast cancer cells; 72 h; mean ± SEM; read-out: Antiproliferative Activity IC50. The protocol:
(§1) The human breast carcinoma cell line MCF-7, was purchased from the European Collection of Animal Cell Cultures (ECACC) and was cultured in Eagle’s minimum essential medium with 10% fetal bovine serum, 2 mM L-glutamine and 100 μg/mL penicillin/streptomycin. The medium was supplemented with 1% non-essential amino acids. The human breast carcinoma cell line MDA-MB-231 was purchased from the European Collection of Animal Cell Cultures (ECACC). MDA-MB-231 cells were maintained in Dulbecco’s modified Eagle’s medium (DMEM) supplemeted with 10% (v/v) fetal bovine serum, 2 mM L-glutamine and 100 μg/mL penicillin/streptomycin (complete medium). All media contained 100 U/mL penicillin and 100 μg/mL streptomycin. Triple negative breast cancer Hs578T cells and its invasive variant Hs578Ts(i)8 were obtained as a kind gift from Dr. Susan McDonnell, School of Chemical and Bioprocess Engineering, University College Dublin and were cultured in Dulbecco’s Modified Eagle’s Media (DMEM) with GlutaMAX^TM-I, with the same supplement as for MDA-MB-231 cells in the absence of non-essential amino acids. HEK-293T normal epithelial embryonic kidney cells were cultured in Dulbecco’s Modified Eagle’s Medium (DMEM) with GlutaMAX^TM-I in the absence of non-essential amino acids. K562 and HL-60 cells were originally obtained from the European Collection of Cell Cultures (Salisbury, UK).The K562 cells were derived from a patient in the blast crisis stage of CML HL-60 cells were derive from a patient with acute myeloid leukaemia. Cells were cultured in RPMI-1640 Glutamax medium supplemented with 10% FCS media, and 100 μg/mL penicillin/streptomycin. Cells were maintained at 37 °C in 5% CO2 in a humidified incubator. All cells were sub-cultured three times/week (adherent cells by trypsinisation).
(§2) Cells were seeded at a density of 5 × 10^3 cells/well (MCF-7), in triplicate in 96-well plates. After 24 h, cells were then treated with either medium alone, vehicle [1% ethanol (v/v)] or with serial dilutions of CA-4 or β-lactam analogue. Cell viability for MCF-7 and MDA-MB-231 was analysed using the Alamar Blue assay (Invitrogen Corp, Thermo Fisher Scientific, 168 Third Avenue, Waltham, MA, USA) according to the manufacturer’s instructions. After 72 h, Alamar Blue [10% (v/v)] was added to each well and plates were incubated for 3–5 h at 37 °C in the dark. Fluorescence was read using a 96-well fluorimeter with excitation at 530 nm and emission at 590 nm. Results were expressed as percentage viability relative to vehicle control (100%). Dose response curves were plotted and IC50 values (concentration of drug resulting in 50% reduction in cell survival) were obtained using the commercial software package Prism (GraphPad Software, Inc., 2365 Northside, Suite 560, San Diego, CA, USA). Experiments were performed in triplicate on at least three separate occasions.
In general terms: Resazurin is reduced to fluorescent resorufin, in cell work by metabolically active cells.

Data set [2] deals with human MDA-MB-231 breast cancer cells. Nature of the data set: Cell viability (Alamar Blue) antiproliferative assay in MDA-MB-231 cells. The format is cell-based. Conditions: mean ± SEM. Here is the method: as §1, §2
Data set [3] has as its system MCF-7 cells. Nature of the data set: Lactate dehydrogenase (LDH) assay for cytotoxicity. The format is cell-based. The following applies: Homo sapiens, MCF7, 72 h, read-out: cell death (LDH assay). The protocol: Cytotoxicity was determined using the CytoTox 96 non-radioactive cytotoxicity assay (Promega Corporation; 2800 Woods Hollow Road, Madison, WI, USA) following the manufacturer’s protocol. Briefly, MCF-7 cells were seeded in 96-well plates, incubated for 24 hr and then treated with test compounds (7d, 7h, 7i, 7q, 7r, 7u, 7t, 10d, 10f, 12) as described in the cell viability assay above. After 72 h, 20 μL of ‘lysis solution (10X)’ was added to control wells and the plate was incubated for a further 1 hr to ensure 100% death. 50 μL of supernatant was carefully removed from each well and transferred to a new 96-well plate. 50 μL of reconstituted ‘substrate mix’ was added and the plate was placed in the dark at room temperature for 30 min. After this period, 50 μL of ‘stop solution’ was added to each well and the absorbance was read at a wavelength of 490 nm using a Dynatech MR5000 plate reader. The percentage cell death at 10 μM was calculated.

Data set [4] concerns the target T1, purified bovine tubulin (Bos taurus, UniProt P81947+Q6B856).
T1 construct: Purified (>99%) bovine brain tubulin (3 mg/mL); purchased Cytoskeleton Inc. BK006; host or cells: bovine brain (tissue-purified)
Nature of the data set: Tubulin polymerization assay. Format: biochemical. Conditions: 10 μM; for vmax of tubulin polymerization: absorbance at 340 nm, 37 °C. The protocol:
The assembly of purified bovine tubulin was monitored using a kit, BK006, purchased from Cytoskeleton Inc., 1830 S Acoma St, Denver, CO, 80223, USA.. The assay was carried out in accordance with the manufacturer’s instructions in the tubulin polymerisation assay kit manual using the standard assay conditions. The values reported represent the average values from two independent assays. Purified (>99%) bovine brain tubulin (3 mg/mL) in a buffer consisting of 80 mM PIPES (pH 6.9), 0.5 mM EGTA, 2 mM MgCl2, 1 mM GTP and 10% glycerol was incubated at 37 °C in the presence of either vehicle (2% (v/v) ddH2O) or compounds 7h, 7i, 7s, 7t (initially 10 µM in EtOH); CA-4 and Paclitaxel were used as controls. Light is scattered proportionally to the concentration of polymerised microtubules in the assay. Therefore, tubulin assembly was monitored turbidimetrically at 340 nm at 37 °C in a Spectramax 340 PC spectrophotometer (Molecular Devices, 3860 N 1st St, San Jose, CA, USA). The absorbance was measured at 30 s intervals for 60 min.

Data set [5] relates to NCI 60 cell line panel. Put plainly: NCI60 cell line screen (SRB assay), whole panel or sub-panels. Format: cell-based. The following applies: mean over the total NCI 60 cell line panel. The text has this: The results are summarized in Tables S3–S5, Supplementary Information.
Table S5: NCI 60 cell line mean screening results for selected compounds NCI Ref. Compound GI50 TGI LC50 […]
a GI50 and LC50 are the mean concentrations required to inhibit the growth and kill 50 % of the cells over the total NCI 60 cell line panel in the assay respectively. […]
over the total NCI 60 cell line panel.

The subject of data set [6] is microtubule network of MCF-7 cells. Nature of the data set: Immunofluorescence microscopy. Format: cell-based, human. The following applies: 1 μM, 16 h. The protocol:
Confocal microscopy was used to study the effects of drug treatment on MCF-7 cytoskeleton. For immunofluorescence, MCF-7 cells were seeded at 1 × 10^5 cells/mL on eight chamber glass slides (BD Biosciences, 2350 Qume Dr, San Jose, CA, USA). Cells were either untreated or treated with vehicle [1% ethanol (v/v)], paclitaxel (1 μM), combretastatin A-4 (100 nM) or compound 7s (100 nM) for 16 h. Following treatment cells were gently washed in PBS, fixed for 20 min with 4% paraformaldehyde in PBS and permeabilised in 0.5% Triton X-100. Following washes in PBS containing 0.1% Tween (PBST), cells were blocked in 5% bovine serum albumin diluted in PBST. Cells were then incubated with mouse monoclonal anti-α-tubulin−FITC antibody (clone DM1A) (Sigma-Aldrich, 2033 Westport Center Dr, St. Louis, MO, USA) (1:100) for 2 h at room temperature. Following washes in PBST, cells were incubated with Alexa Fluor 488 dye (1:450) for 1 h at room temperature. Following washes in PBST, the cells were mounted in Ultra Cruz Mounting Media (Santa Cruz Biotechnology Inc., 10410 Finnell Street, Dallas, TX, USA) containing 4,6-diamino-2-phenolindol dihydrochloride (DAPI). Images were captured by Leica SP8 confocal microscopy with Leica application suite X software (Leica Microsystems CMS GmbH Am Friedensplatz 3 D-68165 Mannheim, Germany). All images in each experiment were collected on the same day using identical parameters. Experiments were performed on three independent occasions.

As usually defined, the IC50 is the point on the concentration scale where inhibition reaches its midpoint. What is called melting point is the temperature, or range, at which the solid turns liquid. What is called GI50 is the concentration at which growth is held to half of that of the control.

T1 sequence (Q6B856 whole entry): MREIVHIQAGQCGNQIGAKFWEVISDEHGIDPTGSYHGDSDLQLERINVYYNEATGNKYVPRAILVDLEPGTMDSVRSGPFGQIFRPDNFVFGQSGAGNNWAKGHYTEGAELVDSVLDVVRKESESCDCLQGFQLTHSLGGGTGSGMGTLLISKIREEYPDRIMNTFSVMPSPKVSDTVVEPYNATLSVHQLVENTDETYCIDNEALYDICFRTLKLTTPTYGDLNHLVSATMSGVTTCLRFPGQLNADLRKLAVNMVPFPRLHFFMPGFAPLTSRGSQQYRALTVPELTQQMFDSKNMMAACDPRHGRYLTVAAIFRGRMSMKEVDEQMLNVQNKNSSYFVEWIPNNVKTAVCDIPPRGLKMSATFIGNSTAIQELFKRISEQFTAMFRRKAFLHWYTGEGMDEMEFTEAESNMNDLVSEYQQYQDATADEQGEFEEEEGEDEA
T1 sequence (P81947 whole entry): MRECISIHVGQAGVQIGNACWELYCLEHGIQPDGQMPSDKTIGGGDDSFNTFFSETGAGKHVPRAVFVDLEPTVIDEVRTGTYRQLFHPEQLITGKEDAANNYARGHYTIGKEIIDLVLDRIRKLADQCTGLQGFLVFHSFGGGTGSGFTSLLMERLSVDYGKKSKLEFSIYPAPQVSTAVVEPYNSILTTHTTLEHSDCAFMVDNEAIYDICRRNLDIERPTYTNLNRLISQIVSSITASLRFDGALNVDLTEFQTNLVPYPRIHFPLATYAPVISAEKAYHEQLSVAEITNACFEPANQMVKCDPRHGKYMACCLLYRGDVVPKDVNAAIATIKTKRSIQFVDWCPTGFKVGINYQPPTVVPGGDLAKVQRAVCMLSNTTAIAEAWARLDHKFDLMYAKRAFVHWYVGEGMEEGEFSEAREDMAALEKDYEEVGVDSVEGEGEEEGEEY

Regarding `C=CC1C(=O)N(c2cc(OC)c(OC)c(OC)c2)C1c1ccc(Cl)cc1` (centres unmarked) [Compound 7b, 4-(4-Chlorophenyl)-1-(3,4,5-trimethoxyphenyl)-3-vinylazetidin-2-one], the melting point is 104 °C. Besides, the half-inhibitory concentration (IC50) in data set [1] was determined as 690 ± 110 nM. Further, the IC50 in data set [2] worked out at 191 ± 16 nM.
Regarding `C=CC1C(=O)N(c2cc(OC)c(OC)c(OC)c2)C1c1ccc([N+](=O)[O-])cc1` (centres unmarked) [Compound 7d, 4-(4-Nitrophenyl)-1-(3,4,5-trimethoxyphenyl)-3-vinylazetidin-2-one], the cytotoxicity at 10 µM in data set [3] came out at 7.2%. Moreover, the IC50 in data set [1] came to 3830 ± 530 nM.
For the molecule `C=CC1C(=O)N(c2cc(OC)c(OC)c(OC)c2)C1c1ccc(OCC)cc1` (centres unmarked) [Compound 7i, 4-(4-Ethoxyphenyl)-1-(3,4,5-trimethoxyphenyl)-3-vinylazetidin-2-one], the cytotoxicity at 10 µM in data set [3] came out at 8.5%. Besides, the concentration for half-maximal inhibition (IC50) in data set [1] amounted to 37 ± 3.3 nM; in data set [2] it was 61 ± 7 nM. In data set [4], the “vmax of tubulin polymerization” value was 3.84 mOD/min. The “fold reduction in vmax of tubulin polymerization” value in data set [4] (with reference to ethanol control) turned out to be 2.19 fold.
In turn, `C=CC1C(=O)N(c2cc(OC)c(OC)c(OC)c2)C1c1ccc2ccccc2c1` (centres unmarked) [Compound 7n, 4-Naphthalen-2-yl-1-(3,4,5-trimethoxyphenyl)-3-vinylazetidin-2-one] had a melting point of 145 to 146 °C. Moreover, the IC50 in data set [1] turned out to be 68 ± 10 nM. In data set [2], this molecule registered a 50% inhibitory concentration (IC50) of 77 ± 9 nM.
As to `C=CC1C(=O)N(c2cc(OC)c(OC)c(OC)c2)C1c1ccc(C#N)cc1` (centres unmarked) [Compound 7q, 4-[4-Oxo-1-(3,4,5-trimethoxyphenyl)-3-vinyl-azetidin-2-yl]benzonitrile], in data set [3], the cytotoxicity at 10 µM turned out to be 4.5%. In addition, the IC50 in data set [1] came to 6250 ± 5050 nM.
Turning to `C=CC1C(=O)N(c2cc(OC)c(OC)c(OC)c2)C1c1ccc(SC)cc1` (centres unmarked) [Compound 7r, 4-(4-Methylsulfanylphenyl)-1-(3,4,5-trimethoxyphenyl)-3-vinylazetidin-2-one], the cytotoxicity at 10 µM in data set [3] amounted to 4.5%. In data set [1], the IC50 was determined as 51 ± 1 nM.
Turning to `C=CC1C(=O)N(c2cc(OC)cc(OC)c2)C1c1ccc(OC)cc1` (centres unmarked) [Compound 7u, 1-(3,5-Dimethoxyphenyl)-4-(4-methoxyphenyl)-3-vinylazetidin-2-one], the cytotoxicity at 10 µM in data set [3] amounted to 3.5%. Also, in data set [1], the IC50 turned out to be 170 ± 70 nM.
`COc1ccc(C2C(C(C)(C)O)C(=O)N2c2cc(OC)c(OC)c(OC)c2)cc1O` (centres unmarked) [Compound 10d, 4-(3-Hydroxy-4-methoxyphenyl)-3-(1-hydroxy-1-methylethyl)-1-(3,4,5-trimethoxy-phenyl)azetidin-2-one]: in data set [3], the cytotoxicity at 10 µM was 9.8%. Further, the IC50 in data set [1] is 544 ± 310 nM.
With `COc1ccc(C2C(C(O)C=Cc3ccccc3)C(=O)N2c2cc(OC)c(OC)c(OC)c2)cc1O` (centres unmarked) [Compound 10f, 4-(3-Hydroxy-4-methoxy-phenyl)-3-(1-hydroxy-3-phenyl-allyl)-1-(3,4,5-trimethoxy-phenyl)-azetidin-2-one], the cytotoxicity at 10 µM in data set [3] worked out at 7.6%. For the same molecule, in data set [1], the IC50 is 46 ± 41 nM.
In the case of `CC=C1C(=O)N(c2cc(OC)c(OC)c(OC)c2)C1c1ccc(OC)c(O)c1` (centres unmarked) [Compound 12, 3-Ethylidene-4-(3-hydroxy-4-methoxy-phenyl)-1-(3,4,5-trimethoxy-phenyl)-azetidin-2-one], in data set [3], the cytotoxicity at 10 µM came to 8.4%. Further, the half-maximal inhibitory concentration (IC50) in data set [1] is 502 ± 212 nM.
For the molecule `COc1ccc(C2CC(=O)N2c2cc(OC)c(OC)c(OC)c2)cc1OP(=O)(O)O` (centres unmarked) [Compound 17a, 2-Methoxy-5-(1-(3,4,5-trimethoxyphenyl)-4-oxoazetidin-2-yl)phenyl dihydrogen phosphate], the “TGI (mean)” value in data set [5] was determined as 39800 nM. Moreover, in data set [5] (read-out: GI50 (mean)), the GI50 amounted to 141 nM. The CC50 in data set [5] (read-out: LC50 (mean)) amounted to 87100 nM. Moreover, the half-inhibitory concentration (IC50) is 22 ± 1.5 nM in data set [1] and 30 ± 4 nM in data set [2].
`CC(=O)O[C@H]1C(=O)[C@@]2(C)[C@H]([C@H](OC(=O)c3ccccc3)[C@]3(O)C[C@H](OC(=O)[C@H](O)[C@@H](NC(=O)c4ccccc4)c4ccccc4)C(C)=C1C3(C)C)[C@]1(OC(C)=O)CO[C@@H]1C[C@@H]2O` [paclitaxel, reference compound]: in data set [4], the “vmax of tubulin polymerization” value was 89.4 mOD/min. Also, the “effect on microtubule network” value in data set [6] was “Formation of microtubule bundles and pseudo asters”.

The values above are taken from PMC6630832, “3-Vinylazetidin-2-Ones: Synthesis, Antiproliferative and Tubulin Destabilizing Activity in MCF-7 and MDA-MB-231 Breast Cancer Cells” (Pharmaceuticals, 2019).
